Active and inactive are the calls of the source. No cut-off for these calls is given here.
Key:
[1] = Photophysical property of the compound assessed as maximum fluorescent emission peak at by fluorescence at 10 uM spectrophotometric analysis; format: physicochemical
[2] = Induction of ROS generation in PBS buffer assessed as increase in superoxide anion radical level by measuring increase in DHR123 fluorescence intensity at 5 uM irradiated with 660 nm 20 mW/cm2 light for upto 7 mins by DHR123 probe based fluorescence spectra analysis; format: functional
[3] = Induction of singlet oxygen production in PBS buffer assessed as decrease in absorption signal at 410 nm under light irradiation with 660 nm 20 mW/cm2 by ABDA based microplate reader analysis relative to control; format: functional
[4] = Drug uptake in human MDA-MB-231 cells assessed as increase in fluorescence intensity at 2.5 uM measured after 2 hrs by flow cytometry analysis; format: ADME, cell-based; settings: mda-mb-231, 2 h
[5] = test system: MDA-MB-231; assay: Induction of ROS production in human MDA-MB-231 cells assessed as increase in green fluorescent intensity at 0.1 uM preincubated with compound for 2 hrs followed by light irradiation for 10 mins by DCFH-DA probe based flow cytometry; format: functional, cell-based; settings: time 130.0 min
[6] = test system: MDA-MB-231; assay: Induction of ROS production in human MDA-MB-231 cells assessed as increase in green fluorescent intensity at 0.1 uM preincubated with compound for 2 hrs followed by light irradiation for 10 mins in presence of NaN3 by DCFH-DA probe based flow cytometry; format: functional, cell-based; settings: time 130.0 min
[7] = test system: MDA-MB-231; assay: Induction of ROS production in human MDA-MB-231 cells assessed as increase in green fluorescent intensity at 0.1 uM preincubated with compound for 2 hrs followed by light irradiation for 10 mins in presence of tiron by DCFH-DA probe based flow cytometry; format: functional, cell-based; settings: time 130.0 min
[8] = test system: MDA-MB-231; assay: Cytotoxicity against human MDA-MB-231 cells assessed as reduction in cell viability upto 10 uM incubated for 24 hrs by CCK-8 assay; format: functional, cell-based
[9] = Phototoxicity against human MDA-MB-231 cells assessed as reduction in cell viability preincubated with compound for 2 hrs followed by light irradiation with 660 nm 20 mW/cm2 for 10 mins and measured after 24 hrs by CCK-8 assay; format: functional, cell-based; settings: MDA-MB-231, light or radiation study
[10] = test system: MDA-MB-231; assay: Induction of cell death in human MDA-MB-231 cells assessed as increase in bright red signal at 0.5 uM preincubated with compound for 2 hrs followed by light irradiation with 660 nm 20 mW/cm2 for 10 mins and measured after 12 hrs by Calcein-AM staining based inverted fluorescence microscopic analysis; format: functional; settings: time 850.0 min
[11] = molecular target: T1, Bromodomain-containing protein 4 (Homo sapiens, UniProt O60885); assay: Inhibition of BRD4 (unknown origin) incubated for 120 mins by TR-FRET assay
[12] = test system: MDA-MB-231; assay: Induction of pyroptosis in human MDA-MB-231 cells assessed as cell swelling at 0.25 uM preincubated with compound for 2 hrs followed by light irradiation with 660 nm 20 mW/cm2 for 10 mins and measured after 24 hrs by CLSM imaging analysis; format: functional, cell-based; settings: time 1570.0 min
[13] = test system: MDA-MB-231; assay: Induction of pyroptosis in human MDA-MB-231 cells assessed as formation of large bubbles on plasma membrane at 0.25 uM preincubated with compound for 2 hrs followed by light irradiation with 660 nm 20 mW/cm2 for 10 mins and measured after 24 hrs by CLSM imaging analysis; format: functional, cell-based; settings: time 1570.0 min
[14] = test system: MDA-MB-231; assay: Induction of pyroptosis in human MDA-MB-231 cells assessed as increase in GSDME-N expression at 0.25 uM preincubated with compound for 2 hrs followed by light irradiation with 660 nm 20 mW/cm2 for 10 mins and measured after 24 hrs by Western blot analysis; format: functional, cell-based; settings: time 1570.0 min
[15] = test system: MDA-MB-231; assay: Induction of pyroptosis in human MDA-MB-231 cells assessed as increase in cleaved caspase -3 expression at 0.1 uM preincubated with compound for 2 hrs followed by light irradiation with 660 nm 20 mW/cm2 for 10 mins and measured after 24 hrs by Western blot analysis; format: functional, cell-based; settings: time 1570.0 min
[16] = test system: MDA-MB-231; assay: Induction of pyroptosis in human MDA-MB-231 cells assessed as effect on cleaved GSDMD expression at 0.1 uM preincubated with compound for 2 hrs followed by light irradiation with 660 nm 20 mW/cm2 for 10 mins and measured after 24 hrs by Western blot analysis; format: functional, cell-based; settings: time 1570.0 min
[17] = test system: MDA-MB-231; assay: Induction of pyroptosis in human MDA-MB-231 cells assessed as effect on caspase-1 expression at 0.1 uM preincubated with compound for 2 hrs followed by light irradiation with 660 nm 20 mW/cm2 for 10 mins and measured after 24 hrs by Western blot analysis; format: functional, cell-based; settings: time 1570.0 min
[18] = test system: MDA-MB-231; assay: Effect on LDH level in human MDA-MB-231 cells preincubated with compound for 2 hrs followed by light irradiation with 660 nm 20 mW/cm2 for 10 mins and measured after 24 hrs; format: functional, cell-based; settings: time 1570.0 min
[19] = test system: MDA-MB-231; assay: Effect on IL-1beta level in human MDA-MB-231 cells preincubated with compound for 2 hrs followed by light irradiation with 660 nm 20 mW/cm2 for 10 mins and measured after 24 hrs by ELISA analysis; format: functional, cell-based; settings: time 1570.0 min
[20] = test system: MDA-MB-231; assay: Induction of cell death in human MDA-MB-231 cells assessed as increase in HMGB1 release in nucleus by immunofluorescence staining based analysis; format: functional
[21] = test system: MDA-MB-231; assay: Induction of ferroptosis in human MDA-MB-231 cells assessed as decrease in GSH level at 0.1 uM preincubated with compound for 2 hrs followed by light irradiation with 660 nm 20 mW/cm2 for 10 mins and measured after 12 hrs; format: functional, cell-based; settings: time 850.0 min
[22] = test system: MDA-MB-231; assay: Induction of ferroptosis in human MDA-MB-231 cells assessed as increase in intracellular LPO accumulation by measuring green fluorescence intensity at 0.1 uM preincubated with compound for 2 hrs followed by light irradiation with 660 nm 20 mW/cm2 for 10 mins and measured after 12 hrs; format: functional, cell-based; settings: time 850.0 min
[23] = test system: MDA-MB-231; assay: Induction of ferroptosis in human MDA-MB-231 cells assessed as reduction in GPX4 expression at 0.1 uM preincubated with compound for 2 hrs followed by light irradiation with 660 nm 20 mW/cm2 for 10 mins and measured after 12 hrs by Western blot analysis; format: functional, cell-based; settings: time 850.0 min
[24] = test system: MDA-MB-231; assay: Induction of autophagy in human MDA-MB-231 cells assessed as increase in ratio of LC3-II to LC3-I preincubated with compound for 2 hrs followed by light irradiation with 660 nm 20 mW/cm2 for 10 mins and measured after 12 hrs by Western blot analysis; format: functional, cell-based; settings: time 850.0 min
[25] = test system: MDA-MB-231; assay: Induction of autophagy in human MDA-MB-231 cells assessed as downregulation p62 expression preincubated with compound for 2 hrs followed by light irradiation with 660 nm 20 mW/cm2 for 10 mins and measured after 24 hrs by Western blot analysis; format: functional, cell-based; settings: time 1570.0 min
[26] = test system: MDA-MB-231; assay: Induction of DNA damage in human MDA-MB-231 cells assessed as upregulation of gamma-H2AX expression preincubated with compound for 2 hrs followed by light irradiation with 660 nm 20 mW/cm2 for 10 mins and measured after 24 hrs by Western blot analysis; format: functional, cell-based; settings: time 1570.0 min
[27] = test system: MDA-MB-231; assay: […] in human MDA-MB-231 cells assessed as decrease in RAD51 expression preincubated with compound for 2 hrs followed by light irradiation with 660 nm 20 mW/cm2 for 10 mins and measured after 24 hrs by Western blot analysis; format: functional, cell-based; settings: time 1570.0 min
[28] = test system: MDA-MB-231; assay: Down regulation of PD-L1 expression in human MDA-MB-231 cells incubated for 24 hrs by Western blot analysis; format: functional, cell-based; settings: dose 0.5-2.5 µM
[29] = test system: MDA-MB-231; assay: Down regulation of PD-L1 expression in human MDA-MB-231 cells at 0.1 uM preincubated with compound for 2 hrs followed by light irradiation with 660 nm 20 mW/cm2 for 10 mins and measured after 24 hrs by Western blot analysis; format: functional, cell-based; settings: time 1570.0 min
[30] = molecular target: T1, Bromodomain-containing protein 4; assay: Inhibition of BRD4 in human MDA-MB-231 cells assessed as downregulation of c-Myc expression at 0.5 to 2.5 uM incubated for 24 hrs by Western blot analysis; format: cell-based; settings: dose 0.5-2.5 µM
[31] = Biodistribution in female BALB/c mouse tumor at 2.5 mg/kg, iv measured at 1 hr; format: ADME, organism-based, Neoplasm; settings: in vivo
[32] = Biodistribution in female BALB/c mouse tumor at 2.5 mg/kg, iv measured at 3 hrs; format: ADME, organism-based, Neoplasm; settings: in vivo
[33] = test system: 4T1; assay: Antitumor activity against mouse 4T1 cells implanted in female BALB/c mouse assessed as inhibition of tumor growth at 2.5 mg/kg, iv preincubated with compound for 3 hrs followed by light irradiation with 660 nm 300 mW/cm2 for 3 min and measured after 14 days; format: functional, organism-based; settings: time 20343.0 min
[34] = test system: 4T1; assay: Antitumor activity against mouse 4T1 cells implanted in female BALB/c mouse assessed as inhibition of tumor growth at 2.5 mg/kg, iv; format: functional, organism-based
[35] = Toxicity in BALB/c mouse implanted with mouse 4T1 cells at 2.5 mg/kg, iv; format: organism-based; settings: in vivo
[36] = Toxicity in BALB/c mouse implanted with mouse 4T1 cells assessed as heart damage at 2.5 mg/kg, iv measured after 14 days by H and E staining based analysis; format: organism-based; settings: in vivo, 336 h, time 14 day
[37] = Toxicity in BALB/c mouse implanted with mouse 4T1 cells assessed as liver damage at 2.5 mg/kg, iv measured after 14 days by H and E staining based analysis; format: organism-based; settings: in vivo, 336 h, time 14 day
[38] = Toxicity in BALB/c mouse implanted with mouse 4T1 cells assessed as spleen damage at 2.5 mg/kg, iv measured after 14 days by H and E staining based analysis; format: organism-based; settings: in vivo, 336 h, time 14 day
[39] = Toxicity in BALB/c mouse implanted with mouse 4T1 cells assessed as kidney damage at 2.5 mg/kg, iv measured after 14 days by H and E staining based analysis; format: organism-based; settings: in vivo, 336 h, time 14 day
[40] = test system: 4T1; assay: Antitumor activity against mouse 4T1 cells implanted in female BALB/c mouse assessed as increase in CD4+ T cells at 2.5 mg/kg, iv preincubated with compound for 3 hrs followed by light irradiation with 660 nm 300 mW/cm2 for 3 min and measured after 14 days; format: functional, organism-based; settings: time 20343.0 min
[41] = test system: 4T1; assay: Antitumor activity against mouse 4T1 cells implanted in female BALB/c mouse assessed as increase in CD8+ T cells at 2.5 mg/kg, iv preincubated with compound for 3 hrs followed by light irradiation with 660 nm 300 mW/cm2 for 3 min and measured after 14 days; format: functional, organism-based; settings: time 20343.0 min
[42] = test system: 4T1; assay: Antitumor activity against mouse 4T1 cells implanted in female BALB/c mouse assessed as increase in T cell infiltration at 2.5 mg/kg, iv preincubated with compound for 3 hrs followed by light irradiation with 660 nm 300 mW/cm2 for 3 min and measured after 14 days; format: functional, organism-based; settings: time 20343.0 min

In the case of `CCN(CC)c1ccc2nc3c(cc(NCc4ccc(NC(=O)C[C@H]5N=C(c6ccc(Cl)cc6)c6c(sc(C)c6C)-n6c(C)nnc65)cc4)c4ccccc43)[s+]c2c1.[Cl-]`, the Activity [1] is reported as “Active”, the Activity [2] is reported as “Active” and the Activity [3] is reported as “Active”. The Drug uptake [4] was “Active”, the Activity [5] was “Active” and the Activity [6] was “inactive”. The Activity [7] was “Active”, the Activity [8] was “Active” and the IC50 [9] was 110 nM. For the same compound, the Activity [10] was “Active”, the IC50 [11] was 45 nM and the Activity [12] was “Active”. The Activity [13] was “Active”, the Activity [14] was “Active” and the Activity [15] was “Active”. The Activity [16] was “inactive”, the Activity [17] was “inactive” and the Activity [18] was “Active”. For the same compound, the Activity [19] was “Active”, the Activity [20] was “Active” and the Activity [21] was “Active”. For the same compound, the Activity [22] was “Active”, the Activity [23] was “Active” and the Activity [24] was “Active”. The Activity [25] was “Active”, the Activity [26] was “Active” and the Activity [27] was “Active”. For the same compound, the Activity [28] was “Dose-dependent-effect”, the Activity [29] was “Active” and the inhibition [30] was “Active”. The Drug uptake [31] was “Active”, the Drug uptake [32] was “Active” and the Activity [33] was “Active”. The Activity [34] was “Active”, the Activity [35] was “Non-toxic” and the Activity [36] was “Non-toxic”. The Activity [37] was “Non-toxic”, the Activity [38] was “Non-toxic” and the Activity [39] was “Non-toxic”. For the same compound, the Activity [40] was “Active”, the Activity [41] was “Active” and the Activity [42] was “Active”.
